Experimental data reported in ChEMBL document CHEMBL1144021, “Molecular determinants of the anticonvulsant felbamate binding site in the N-methyl-D-aspartate receptor” (J Med Chem, 2008).
The source made the active and inactive calls. No cut-off for these calls is given here.

How the values were obtained:
[1] = test system: Glutamate receptor ionotropic, NMDA 2B (Homo sapiens), Q13224 [T647A]; experiment: Inhibition of NR2B receptor M3c T647A mutant expressed in Xenopus oocytes assessed as NMDA current at 0.5 mM relative to control; format: cell-based; conditions: Oocyte
[2] = Ratio of Kapp for wild type NR2B receptor to Kapp for ATD NR2B receptor F176A mutant
[3] = test system: Glutamate receptor ionotropic, NMDA 2B (Homo sapiens), Q13224 [E658A]; experiment: Inhibition of NR2B receptor post-M3 E658A mutant expressed in Xenopus oocytes assessed as NMDA current at 0.5 mM relative to control; format: cell-based; conditions: Oocyte
[4] = test system: Glutamate receptor ionotropic, NMDA 2B (Homo sapiens), Q13224 [F554A]; experiment: Inhibition of NR2B receptor Pre-M1 F554A mutant expressed in Xenopus oocytes assessed as NMDA current at 0.5 mM relative to control; format: cell-based; conditions: Oocyte
[5] = test system: Glutamate receptor ionotropic, NMDA 2B (Homo sapiens), Q13224 [A652T]; experiment: Binding affinity to NR2B receptor M3c A652T mutant
[6] = Binding affinity to NR2B receptor […]/T103A mutant
[7] = test system: Glutamate receptor ionotropic, NMDA 2B (Homo sapiens), Q13224 [S645A]; experiment: Binding affinity to NR2B receptor M3c S645A mutant
[8] = test system: Glutamate receptor ionotropic, NMDA 2B (Homo sapiens), Q13224 [T233A]; experiment: Binding affinity to NR2B receptor ATD T233A mutant
[9] = test system: Glutamate receptor ionotropic, NMDA 2B (Homo sapiens), Q13224 [S548A]; experiment: Inhibition of NR2B receptor Pre-M1 S548A mutant expressed in Xenopus oocytes assessed as NMDA current at 0.5 mM relative to control; format: cell-based; conditions: Oocyte
[10] = Ratio of Kapp for wild type NR2B receptor to Kapp for NR2B receptor L643A/T647A mutant
[11] = test system: Glutamate receptor ionotropic, NMDA 2B (Homo sapiens), Q13224 [N542A]; experiment: Inhibition of NR2B receptor Pre-M1 N542A mutant expressed in Xenopus oocytes assessed as NMDA current at 0.5 mM relative to control; format: cell-based; conditions: Oocyte
[12] = test system: Glutamate receptor ionotropic, NMDA 2B (Homo sapiens), Q13224 [F550A]; experiment: Inhibition of NR2B receptor Pre-M1 F550A mutant expressed in Xenopus oocytes assessed as NMDA current at 0.5 mM relative to control; format: cell-based; conditions: Oocyte
[13] = test system: Glutamate receptor ionotropic, NMDA 2B (Homo sapiens), Q13224 [D557A]; experiment: Inhibition of NR2B receptor Pre-M1 D557A mutant expressed in Xenopus oocytes assessed as NMDA current at 0.5 mM relative to control; format: cell-based; conditions: Oocyte
[14] = test system: Glutamate receptor ionotropic, NMDA 2B (Homo sapiens), Q13224 [S645A,K234A]; experiment: Binding affinity to NR2B receptor S645A/K234A mutant
[15] = test system: Glutamate receptor ionotropic, NMDA 2B (Homo sapiens), Q13224 [N615A]; experiment: Inhibition of NR2B receptor M2 N615A mutant expressed in Xenopus oocytes assessed as NMDA current at 0.5 mM relative to control; format: cell-based; conditions: Oocyte
[16] = test system: Glutamate receptor ionotropic, NMDA 2B (Homo sapiens), Q13224 [T103A]; experiment: Binding affinity to NR2B receptor ATD T103A mutant
[17] = test system: Glutamate receptor ionotropic, NMDA 2B (Homo sapiens), Q13224 [Q656A]; experiment: Inhibition of NR2B receptor post-M3 Q656A mutant expressed in Xenopus oocytes assessed as NMDA current at 0.5 mM relative to control; format: cell-based; conditions: Oocyte
[18] = test system: Glutamate receptor ionotropic, NMDA 2B (Homo sapiens), Q13224 [I655A]; experiment: Inhibition of NR2B receptor post-M3 I655A mutant expressed in Xenopus oocytes assessed as NMDA current at 0.5 mM relative to control; format: cell-based; conditions: Oocyte
[19] = test system: Glutamate receptor ionotropic, NMDA 2B (Homo sapiens), Q13224 [F176A]; experiment: Inhibition of NR2B receptor ATD F176A mutant expressed in Xenopus oocytes assessed as NMDA current at 0.5 mM relative to control; format: cell-based; conditions: Oocyte
[20] = test system: Glutamate receptor ionotropic, NMDA 2B (Homo sapiens), Q13224 [E552A]; experiment: Inhibition of NR2B receptor Pre-M1 E552A mutant expressed in Xenopus oocytes assessed as NMDA current at 0.5 mM relative to control; format: cell-based; conditions: Oocyte
[21] = test system: Glutamate receptor ionotropic, NMDA 2B (Homo sapiens), Q13224 [F182A]; experiment: Inhibition of NR2B receptor ATD F182A mutant expressed in Xenopus oocytes assessed as NMDA current at 0.5 mM relative to control; format: cell-based; conditions: Oocyte
[22] = test system: Glutamate receptor ionotropic, NMDA 2B (Homo sapiens), Q13224 [T233A]; experiment: Inhibition of NR2B receptor ATD T233A mutant expressed in Xenopus oocytes assessed as NMDA current at 0.5 mM relative to control; format: cell-based; conditions: Oocyte
[23] = Ratio of Kapp for wild type NR2B receptor to Kapp for NR2B receptor M3c T647A mutant
[24] = Ratio of Kapp for wild type NR2B receptor to Kapp for NR2B receptor ATD E236A mutant
[25] = test system: Glutamate receptor ionotropic, NMDA 2B (Homo sapiens), Q13224 [S645A,T103A]; experiment: Binding affinity to NR2B receptor S645A/T103A mutant
[26] = test system: Glutamate receptor ionotropic, NMDA 2B (Homo sapiens), Q13224 [V558A]; experiment: Inhibition of NR2B receptor Pre-M1 V558A mutant expressed in Xenopus oocytes assessed as NMDA current at 0.5 mM relative to control; format: cell-based; conditions: Oocyte
[27] = test system: Glutamate receptor ionotropic, NMDA 2B (Homo sapiens), Q13224 [A651T]; experiment: Inhibition of NR2B receptor M3c A651T mutant expressed in Xenopus oocytes assessed as NMDA current at 0.5 mM relative to control; format: cell-based; conditions: Oocyte
[28] = test system: Glutamate receptor ionotropic, NMDA 2B (Homo sapiens), Q13224 [L650A]; experiment: Inhibition of NR2B receptor M3c L650A mutant expressed in Xenopus oocytes assessed as NMDA current at 0.5 mM relative to control; format: cell-based; conditions: Oocyte
[29] = test system: Glutamate receptor ionotropic, NMDA 2B (Homo sapiens), Q13224 [L643A,S645A]; experiment: Binding affinity to NR2B receptor L643A/S645A mutant
[30] = Ratio of Kapp for wild type NR2B receptor to Kapp for NR2B receptor ATD K234A mutant
[31] = test system: Glutamate receptor ionotropic, NMDA 2B (Homo sapiens), Q13224 [E106A]; experiment: Inhibition of NR2B receptor ATD E106A mutant expressed in Xenopus oocytes assessed as NMDA current at 0.5 mM relative to control; format: cell-based; conditions: Oocyte
[32] = test system: Glutamate receptor ionotropic, NMDA 2B (Homo sapiens), Q13224 [I641A]; experiment: Inhibition of NR2B receptor M3c I641A mutant expressed in Xenopus oocytes assessed as NMDA current at 0.5 mM relative to control; format: cell-based; conditions: Oocyte
[33] = Ratio of Kapp for wild type NR2B receptor to Kapp for NR2B receptor ATD T233A mutant

Sequence of Glutamate receptor ionotropic, NMDA 2B (Homo sapiens), Q13224 [T233A] (Q13224 whole entry T233A): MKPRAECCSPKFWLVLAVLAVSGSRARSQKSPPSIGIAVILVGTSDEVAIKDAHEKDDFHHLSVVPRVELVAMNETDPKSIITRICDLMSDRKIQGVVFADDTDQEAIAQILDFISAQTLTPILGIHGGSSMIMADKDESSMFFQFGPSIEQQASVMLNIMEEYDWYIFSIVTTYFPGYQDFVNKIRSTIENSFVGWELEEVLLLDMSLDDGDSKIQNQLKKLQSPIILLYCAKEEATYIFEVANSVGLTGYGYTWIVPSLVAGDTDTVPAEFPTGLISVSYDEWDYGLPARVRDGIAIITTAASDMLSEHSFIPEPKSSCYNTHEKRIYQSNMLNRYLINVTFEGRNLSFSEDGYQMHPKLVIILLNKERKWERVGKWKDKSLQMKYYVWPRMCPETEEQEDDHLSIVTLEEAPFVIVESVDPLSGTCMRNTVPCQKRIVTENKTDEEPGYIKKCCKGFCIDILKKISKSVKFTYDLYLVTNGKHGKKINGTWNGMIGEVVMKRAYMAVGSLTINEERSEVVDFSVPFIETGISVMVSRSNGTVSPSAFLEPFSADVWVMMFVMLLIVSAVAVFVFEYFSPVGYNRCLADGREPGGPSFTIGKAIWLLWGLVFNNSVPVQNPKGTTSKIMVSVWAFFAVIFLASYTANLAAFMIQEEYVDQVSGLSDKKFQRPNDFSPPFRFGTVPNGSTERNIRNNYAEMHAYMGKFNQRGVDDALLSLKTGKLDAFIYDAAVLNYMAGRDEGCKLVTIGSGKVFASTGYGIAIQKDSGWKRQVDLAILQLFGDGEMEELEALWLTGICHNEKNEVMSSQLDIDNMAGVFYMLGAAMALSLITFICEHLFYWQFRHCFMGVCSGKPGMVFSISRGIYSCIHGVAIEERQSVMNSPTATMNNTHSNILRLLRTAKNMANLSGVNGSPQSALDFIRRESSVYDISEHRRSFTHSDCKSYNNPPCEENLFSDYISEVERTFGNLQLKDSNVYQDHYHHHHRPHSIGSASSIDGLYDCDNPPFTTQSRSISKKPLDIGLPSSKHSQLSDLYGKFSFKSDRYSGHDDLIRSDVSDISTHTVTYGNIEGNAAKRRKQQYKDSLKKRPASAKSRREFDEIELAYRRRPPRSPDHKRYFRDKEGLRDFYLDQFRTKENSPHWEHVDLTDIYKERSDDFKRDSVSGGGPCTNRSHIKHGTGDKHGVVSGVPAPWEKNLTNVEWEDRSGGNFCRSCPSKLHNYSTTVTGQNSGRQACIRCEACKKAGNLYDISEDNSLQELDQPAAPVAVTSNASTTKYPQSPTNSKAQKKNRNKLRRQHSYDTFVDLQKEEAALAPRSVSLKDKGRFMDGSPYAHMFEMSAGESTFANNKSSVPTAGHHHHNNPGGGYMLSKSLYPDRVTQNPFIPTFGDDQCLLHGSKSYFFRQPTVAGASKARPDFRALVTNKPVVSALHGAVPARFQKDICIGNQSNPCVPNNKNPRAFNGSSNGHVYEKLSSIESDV
Sequence of Glutamate receptor ionotropic, NMDA 2B (Homo sapiens), Q13224 [S645A] (Q13224 whole entry S645A): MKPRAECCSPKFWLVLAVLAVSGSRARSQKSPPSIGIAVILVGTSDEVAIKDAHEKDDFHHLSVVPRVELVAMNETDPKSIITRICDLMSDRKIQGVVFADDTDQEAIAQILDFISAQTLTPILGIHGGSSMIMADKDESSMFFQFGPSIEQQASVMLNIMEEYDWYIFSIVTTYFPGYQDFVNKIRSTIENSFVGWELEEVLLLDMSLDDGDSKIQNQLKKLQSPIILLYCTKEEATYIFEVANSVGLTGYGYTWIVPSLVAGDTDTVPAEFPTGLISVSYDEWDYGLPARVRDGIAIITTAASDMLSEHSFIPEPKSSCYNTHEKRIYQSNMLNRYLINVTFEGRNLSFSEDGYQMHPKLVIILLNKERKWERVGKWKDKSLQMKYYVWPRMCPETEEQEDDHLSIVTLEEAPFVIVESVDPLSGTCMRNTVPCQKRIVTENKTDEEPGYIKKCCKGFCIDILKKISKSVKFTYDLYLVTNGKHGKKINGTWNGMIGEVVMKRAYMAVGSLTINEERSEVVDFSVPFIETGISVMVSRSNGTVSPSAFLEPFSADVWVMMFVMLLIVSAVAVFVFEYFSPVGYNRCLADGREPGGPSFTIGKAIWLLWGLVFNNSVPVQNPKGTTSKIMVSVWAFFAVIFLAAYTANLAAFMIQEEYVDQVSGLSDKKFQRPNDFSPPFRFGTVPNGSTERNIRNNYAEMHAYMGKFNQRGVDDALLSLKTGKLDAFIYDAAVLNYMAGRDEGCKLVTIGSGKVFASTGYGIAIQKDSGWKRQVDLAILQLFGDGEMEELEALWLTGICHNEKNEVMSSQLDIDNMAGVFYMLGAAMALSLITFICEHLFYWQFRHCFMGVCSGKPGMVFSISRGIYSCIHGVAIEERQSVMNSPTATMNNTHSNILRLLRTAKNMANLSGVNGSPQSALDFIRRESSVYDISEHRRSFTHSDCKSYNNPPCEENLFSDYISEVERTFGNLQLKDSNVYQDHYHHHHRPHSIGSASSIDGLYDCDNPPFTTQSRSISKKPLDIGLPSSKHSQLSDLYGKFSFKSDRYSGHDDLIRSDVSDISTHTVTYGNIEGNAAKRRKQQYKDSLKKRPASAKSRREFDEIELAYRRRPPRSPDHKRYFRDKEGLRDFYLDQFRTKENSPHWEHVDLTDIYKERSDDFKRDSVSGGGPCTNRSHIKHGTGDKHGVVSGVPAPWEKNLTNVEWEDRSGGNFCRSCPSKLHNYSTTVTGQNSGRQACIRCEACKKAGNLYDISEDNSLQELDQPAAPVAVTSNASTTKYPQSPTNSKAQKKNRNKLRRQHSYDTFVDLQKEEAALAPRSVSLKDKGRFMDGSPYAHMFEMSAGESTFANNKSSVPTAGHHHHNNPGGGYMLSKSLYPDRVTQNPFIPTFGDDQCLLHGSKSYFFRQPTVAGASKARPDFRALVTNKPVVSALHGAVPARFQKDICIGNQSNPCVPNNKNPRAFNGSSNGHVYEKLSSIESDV
Sequence of Glutamate receptor ionotropic, NMDA 2B (Homo sapiens), Q13224 [F550A] (Q13224 whole entry F550A): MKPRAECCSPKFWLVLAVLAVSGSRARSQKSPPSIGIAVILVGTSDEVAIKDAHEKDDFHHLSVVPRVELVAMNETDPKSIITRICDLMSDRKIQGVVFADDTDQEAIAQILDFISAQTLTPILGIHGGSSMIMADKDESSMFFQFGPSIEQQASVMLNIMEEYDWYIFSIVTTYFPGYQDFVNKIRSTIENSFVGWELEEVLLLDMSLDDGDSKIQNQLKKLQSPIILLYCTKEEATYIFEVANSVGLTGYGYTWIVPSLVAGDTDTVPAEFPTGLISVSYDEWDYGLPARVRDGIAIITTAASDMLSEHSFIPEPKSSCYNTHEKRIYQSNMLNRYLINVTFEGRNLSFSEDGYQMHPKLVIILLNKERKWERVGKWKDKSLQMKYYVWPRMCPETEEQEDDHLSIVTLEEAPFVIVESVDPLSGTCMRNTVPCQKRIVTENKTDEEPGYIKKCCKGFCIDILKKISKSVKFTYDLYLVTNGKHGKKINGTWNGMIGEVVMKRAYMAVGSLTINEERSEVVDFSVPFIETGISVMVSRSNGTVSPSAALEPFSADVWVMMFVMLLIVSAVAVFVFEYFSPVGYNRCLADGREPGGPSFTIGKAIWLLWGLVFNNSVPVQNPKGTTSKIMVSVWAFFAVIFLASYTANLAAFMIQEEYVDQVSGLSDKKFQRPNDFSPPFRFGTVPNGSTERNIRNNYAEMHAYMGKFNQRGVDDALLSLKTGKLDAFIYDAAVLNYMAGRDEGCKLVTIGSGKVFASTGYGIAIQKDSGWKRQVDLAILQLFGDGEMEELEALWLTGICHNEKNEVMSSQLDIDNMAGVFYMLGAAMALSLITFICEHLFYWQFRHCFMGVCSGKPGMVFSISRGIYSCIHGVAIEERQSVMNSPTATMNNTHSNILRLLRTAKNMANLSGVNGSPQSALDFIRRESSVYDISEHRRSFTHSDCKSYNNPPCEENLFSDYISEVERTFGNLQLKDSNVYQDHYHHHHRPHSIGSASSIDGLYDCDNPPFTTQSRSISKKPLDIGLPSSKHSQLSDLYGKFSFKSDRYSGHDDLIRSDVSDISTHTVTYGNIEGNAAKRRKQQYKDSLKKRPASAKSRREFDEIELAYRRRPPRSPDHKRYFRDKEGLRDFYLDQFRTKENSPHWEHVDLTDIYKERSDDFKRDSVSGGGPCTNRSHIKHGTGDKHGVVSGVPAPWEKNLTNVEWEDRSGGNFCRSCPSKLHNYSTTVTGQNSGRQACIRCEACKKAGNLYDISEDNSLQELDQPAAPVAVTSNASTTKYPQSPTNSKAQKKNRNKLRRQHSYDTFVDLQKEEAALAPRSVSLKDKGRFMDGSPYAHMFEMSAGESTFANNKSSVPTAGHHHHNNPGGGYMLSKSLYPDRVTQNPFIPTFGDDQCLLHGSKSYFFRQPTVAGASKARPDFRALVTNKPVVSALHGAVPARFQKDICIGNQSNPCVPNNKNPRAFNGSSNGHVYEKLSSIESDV

NC(=O)OCC(COC(N)=O)c1ccccc1
inhibition [1]: 89% | Ratio Ki(app) [2]: 3.2 | inhibition [3]: 65% | Activity [4]: inactive | Kapp [5]: 2.92 mM | Kapp [6]: 6.73 mM | Kapp [7]: 4.23 mM | Kapp [8]: 2.56 mM | inhibition [9]: 76% | Ratio Ki(app) [10]: 40 | inhibition [11]: 73% | inhibition [12]: 62% | inhibition [13]: 75% | Kapp [14]: 7.1 mM | inhibition [15]: 66% | Kapp [16]: 4.21 mM | inhibition [17]: 70% | inhibition [18]: 76% | inhibition [19]: 84% | inhibition [20]: 77% | inhibition [21]: 72% | inhibition [22]: 84% | Ratio Ki(app) [23]: 7.5 | Ratio Ki(app) [24]: 2.5 | Kapp [25]: 6.28 mM | inhibition [26]: 71% | inhibition [27]: 72% | inhibition [28]: 76% | Kapp [29]: 6.68 mM | Ratio Ki(app) [30]: 4.9 | inhibition [31]: 74% | inhibition [32]: 84% | Ratio Ki(app) [33]: 2.9
